The values that follow come from patent publication US10105357B2, “Indication of antibiotic drugs for preparation of cancer inhibition pharmaceutical composition” (LAUNX BIOMEDICAL CO., LTD., priority 2014, dated 2018).

Counter-ions that a name gives are not always drawn. Like-named read-outs stand apart in the source and are kept apart here.

What all share (type): cell-based, human
The test system of data set [1] is PC3 (p53−) (Prostate Adenocarcinoma). Briefly: Cell viability analysis, prostate cancer PC3. Particulars: 72 h; for viability at 10 µM: Homo sapiens.
The subject of data set [2] is MCF7 (Mammary Gland, Adenocarcinoma). The data set can be described thus: Cell viability analysis, breast cancer MCF7. Particulars: Homo sapiens, MCF7, 72 h.
Data set [3] has as its system A549 (Lung Adenocarcinoma). The data set can be described thus: Cell viability analysis, lung cancer A549. Particulars: for viability at 10 µM: Homo sapiens, A549, 72 h.
Another data set relates to cancer cell lines. The data set can be described thus: Cell viability analysis (WST-1) on cancer cell lines. Particulars: drug 10 μM, 72 hours, WST-1; Table 3.
Data set [4] concerns AGS (Gastric Adenocarcinoma). Briefly: Cell viability analysis, gastric cancer AGS. Particulars: Homo sapiens, 72 h.
Data set [5] has as its system A375 (Amelanotic Melanoma). The data set can be described thus: Cell viability analysis, skin cancer A375. Particulars: for viability at 10 µM: Homo sapiens, A-375, 72 h.
Data set [6] relates to TSGH-8301 (Urinary Bladder Carcinoma). Briefly: Cell viability analysis, bladder cancer TSGH-8301. Particulars: 72 h; for viability at 10 µM: Homo sapiens.
Data set [7] concerns HI650 (Lung Adenocarcinoma). The data set can be described thus: Cell viability analysis, lung cancer HI650. Particulars: Homo sapiens, NCI-H1650, 72 h.
Data set [8] relates to HeLa (Cervix Adenocarcinoma). The data set can be described thus: Cell viability analysis, cervical cancer HeLa. Particulars: Homo sapiens, HeLa, 72 h.
Data set [9] relates to LoVo (Colorectal Adenocarcinoma). The data set can be described thus: Cell viability analysis, colon cancer LoVo. Particulars: 72 h; for viability at 10 µM: Homo sapiens, LoVo, read-out: cell viability (survival rate), LoVo, drug 10 μM, 72 hours, WST-1, OD450 nm.
The test system of data set [10] is MKN-45 (Gastric Adenocarcinoma). Briefly: Cell viability analysis, gastric cancer MKN-45. Particulars: for viability at 10 µM: Homo sapiens, MKN-45, 72 h.
Data set [11] relates to HL-60 (Acute Promyelocytic Leukemia). The data set can be described thus: Cell viability analysis, leukemia HL-60. Particulars: Homo sapiens, HL-60, 72 h.
In data set [12] the test system is HepG2 (Hepatocellular Carcinoma). Briefly: Cell viability analysis, hepatic cancer HepG2. Particulars: Homo sapiens, HepG2, 72 h.
Setting [13] is: read-out: cell viability (survival rate), PC3, drug 10 μM, 72 hours, WST-1, OD450 nm.
[14] abbreviates: read-out: cell viability (survival rate), MCF7, drug 10 μM, 72 hours, WST-1, OD450 nm.
Setting [15] is: read-out: cell viability (survival rate), A549, drug 10 μM, 72 hours, WST-1, OD450 nm.
The mark [16] stands for this setting: read-out: cell viability (survival rate), AGS, drug 10 μM, 72 hours, WST-1, OD450 nm.
[17] abbreviates: read-out: cell viability (survival rate), A375, drug 10 μM, 72 hours, WST-1, OD450 nm.
Setting [18] is: read-out: cell viability (survival rate), TSGH, drug 10 μM, 72 hours, WST-1, OD450 nm.
Where [19] appears, read: read-out: cell viability (survival rate), H1650, drug 10 μM, 72 hours, WST-1, OD450 nm.
Setting [20] is: read-out: cell viability (survival rate), HeLa, drug 10 μM, 72 hours, WST-1, OD450 nm.
[21] abbreviates: read-out: cell viability (survival rate), MKN-45, drug 10 μM, 72 hours, WST-1, OD450 nm.
[22] abbreviates: read-out: cell viability (survival rate), HL-60, drug 10 μM, 72 hours, WST-1, OD450 nm.
Setting [23] is: read-out: cell viability (survival rate), HepG2, drug 10 μM, 72 hours, WST-1, OD450 nm.
[24] abbreviates: drug 10 μM, 72 hours, WST-1, OD450 nm, read-out: cell viability (survival rate), PC3.
Where [25] appears, read: drug 10 μM, 72 hours, WST-1, OD450 nm, read-out: cell viability (survival rate), MCF7.
The mark [26] stands for this setting: drug 10 μM, 72 hours, WST-1, OD450 nm, read-out: cell viability (survival rate), A549.
[27] abbreviates: drug 10 μM, 72 hours, WST-1, OD450 nm, read-out: cell viability (survival rate), AGS.
Setting [28] is: drug 10 μM, 72 hours, WST-1, OD450 nm, read-out: cell viability (survival rate), A375.
[29] abbreviates: drug 10 μM, 72 hours, WST-1, OD450 nm, read-out: cell viability (survival rate), TSGH.
Setting [30] is: drug 10 μM, 72 hours, WST-1, OD450 nm, read-out: cell viability (survival rate), H1650.
[31] abbreviates: drug 10 μM, 72 hours, WST-1, OD450 nm, read-out: cell viability (survival rate), HeLa.
[32] abbreviates: drug 10 μM, 72 hours, WST-1, OD450 nm, read-out: cell viability (survival rate), MKN-45.
Where [33] appears, read: drug 10 μM, 72 hours, WST-1, OD450 nm, read-out: cell viability (survival rate), HL-60.
The mark [34] stands for this setting: drug 10 μM, 72 hours, WST-1, OD450 nm, read-out: cell viability (survival rate), HepG2.

Regarding `CC1(C)S[C@@H]2[C@H](NC(=O)[C@H](NC(=O)N3CCN(S(C)(=O)=O)C3=O)c3ccccc3)C(=O)N2[C@H]1C(=O)O` [Mezlocillin Sodium], the viability at 10 µM in data set [1] (setting [13]) was 97.8%; in data set [2] (setting [14]) it was 107%; in data set [3] (setting [15]), 78%; in [4] (setting [16]), 72.2%; in [5] (setting [17]) it was 107%; in data set [6] (setting [18]), 91.9%. Besides, the viability at 10 µM in data set [7] (setting [19]) was determined as 81%; in data set [8] (setting [20]), 111%; in data set [9], 116%; in data set [10] (setting [21]), 92.9%; in data set [11] (setting [22]) it was 91.4%; in data set [12] (setting [23]), 95.1%. Moreover, the “inhibition effect on different cancer cell lines” value with cancer cell lines is “significant inhibition effect”.
In the case of `CN(C/C=C/c1ccccc1)Cc1cccc2ccccc12` [Naftifine HCl], the viability at 10 µM in data set [1] (setting [13]) was 109%; in [2] (setting [14]), 84.5%; in [3] (setting [15]) it was 127%; in [4] (setting [16]) it was 104%; in data set [5] (setting [17]), 63.3%; in data set [6] (setting [18]), 79.6%. The viability at 10 µM in data set [7] (setting [19]) is 72.3%; in [8] (setting [20]), 80.6%; in data set [9], 86.3%; in [10] (setting [21]), 58.5%; in [11] (setting [22]) it was 93.2%; in data set [12] (setting [23]) it was 91.2%. Moreover, in the data set with cancer cell lines, the “inhibition effect on different cancer cell lines” value is listed as “significant inhibition effect”.
In the case of `C[C@@H]1C/C=C/C=C/C=C/C=C/[C@H](O[C@@H]2O[C@H](C)[C@@H](O)[C@H](N)[C@@H]2O)C[C@@H]2O[C@](O)(C[C@@H](O)C[C@H]3O[C@@H]3/C=C/C(=O)O1)C[C@H](O)[C@H]2C(=O)O` [Natamycin (Pimaricin), Natamycin], the viability at 10 µM turned out to be 70% in data set [1] (setting [13]); 83.2% in data set [2] (setting [14]); 62.6% in data set [3] (setting [15]); 40.9% in data set [4] (setting [16]); 82.1% in data set [5] (setting [17]); 84.9% in [6] (setting [18]). Further, the viability at 10 µM in [7] (setting [19]) was found to be 57%; in [8] (setting [20]) it was 93.5%; in data set [9], 84.8%; in data set [10] (setting [21]), 67.1%; in [11] (setting [22]), 107%; in data set [12] (setting [23]), 95.3%. The “inhibition effect on different cancer cell lines” value in the data set on cancer cell lines is recorded as “significant inhibition effect”.
In the case of `Cc1ccnc2c1NC(=O)c1cccnc1N2C1CC1` [Nevirapine (Viramune), Nevirapine], the viability at 10 µM in data set [1] (setting [24]) is 84.1%; in data set [2] (setting [25]), 38.5%; in [3] (setting [26]), 45.7%; in [4] (setting [27]), 115%; in data set [5] (setting [28]) it was 66.8%; in data set [6] (setting [29]), 103%. Besides, the viability at 10 µM in data set [7] (setting [30]) worked out at 89.7%; in data set [8] (setting [31]), 58.9%; in [9], 85.7%; in data set [10] (setting [32]), 68.3%; in [11] (setting [33]), 98.7%; in data set [12] (setting [34]) it was 85.5%. Also, the “inhibition effect on different cancer cell lines” value in the data set on cancer cell lines is listed as “significant inhibition effect”.
Consider `O=C(O)c1cccnc1Nc1cccc(C(F)(F)F)c1` [Niflumic acid], for which the viability at 10 µM worked out at 111% in data set [1] (setting [24]); 86.9% in [2] (setting [25]); 99.2% in data set [3] (setting [26]); 40.5% in [4] (setting [27]); 50% in [5] (setting [28]); 66.8% in data set [6] (setting [29]). The viability at 10 µM in data set [7] (setting [30]) was 50.8%; in data set [8] (setting [31]), 51.9%; in [9], 82%; in data set [10] (setting [32]) it was 68.7%; in data set [11] (setting [33]), 132%; in [12] (setting [34]) it was 87.4%. Further, the “inhibition effect on different cancer cell lines” value in the data set on cancer cell lines was “significant inhibition effect”.
Consider `O=C(N/N=C/c1ccc([N+](=O)[O-])o1)c1ccc(O)cc1` [Nifuroxazide], for which the viability at 10 µM in [1] (setting [13]) worked out at 92%; in data set [2] (setting [14]) it was 80.1%; in data set [3] (setting [15]), 33.2%; in [4] (setting [16]) it was 36.7%; in [5] (setting [17]) it was 51.6%; in [6] (setting [18]), 56.2%. The viability at 10 µM came out at 57.6% in data set [7] (setting [19]); 66.6% in data set [8] (setting [20]); 58.3% in data set [9]; 51% in [10] (setting [21]); 38.8% in data set [11] (setting [22]); 73% in data set [12] (setting [23]). In addition, the “inhibition effect on different cancer cell lines” value in the data set with cancer cell lines was “significant inhibition effect”.
Take `CCn1cc(C(=O)O)c(=O)c2cc(F)c(N3CCNCC3)cc21` [Norfloxacin (Norxacin), Norfloxacin]: the viability at 10 µM came to 72.2% in [1] (setting [13]); 94.8% in data set [2] (setting [14]); 84.8% in [3] (setting [15]); 63.8% in [4] (setting [16]); 73.8% in [5] (setting [17]); 75.9% in [6] (setting [18]). The viability at 10 µM in [7] (setting [19]) came out at 75%; in data set [8] (setting [20]), 78.7%; in data set [9] it was 88%; in data set [10] (setting [21]) it was 68.9%; in data set [11] (setting [22]), 87.7%; in data set [12] (setting [23]), 90.5%. Also, in the data set on cancer cell lines, the “inhibition effect on different cancer cell lines” value is listed as “significant inhibition effect”.
Consider `C[C@@H]1CN(c2c(F)c(F)c3c(=O)c(C(=O)O)cn(C4CC4)c3c2F)C[C@H](C)N1` [Orbifloxacin], for which the viability at 10 µM in data set [1] (setting [24]) came to 51.1%; in data set [2] (setting [25]), 33.3%; in data set [3] (setting [26]), 44.2%; in data set [4] (setting [27]), 84.5%; in [5] (setting [28]), 55.6%; in data set [6] (setting [29]), 44.3%. In addition, the viability at 10 µM in data set [7] (setting [30]) was determined as 63.7%; in data set [8] (setting [31]), 66.8%; in data set [9] it was 75.4%; in data set [10] (setting [32]), 44.1%; in data set [11] (setting [33]), 92.3%; in data set [12] (setting [34]), 84.2%. For the same compound, the “inhibition effect on different cancer cell lines” value in the data set on cancer cell lines is recorded as “significant inhibition effect”.
For the compound `CN(C)[C@@H]1C(O)=C(C(N)=O)C(=O)[C@@]2(O)C(O)=C3C(=O)c4c(O)cccc4[C@@](C)(O)[C@H]3[C@H](O)[C@@H]12` [Oxytetracycline dihydrate], the “cell viability (survival rate), PC3” value in data set [1] (human, 10 µM) was found to be 42.1. Moreover, the viability at 10 µM was 34.2% in [2] (setting [14]); 71.7% in data set [4] (setting [16]); 73.8% in data set [7] (setting [19]); 65.6% in [8] (setting [20]); 99.3% in [11] (setting [22]); 93.4% in [12] (setting [23]). Also, the “cell viability (survival rate), A549” value in [3] (human, 72 h, 10 µM) turned out to be 22.1. Moreover, the “inhibition effect on different cancer cell lines” value with cancer cell lines was “significant inhibition effect”. In addition, the “cell viability (survival rate), A375” value in data set [5] (human, 72 h, 10 µM) is listed as 72.5. Moreover, in data set [6] (human, 10 µM), the “cell viability (survival rate), TSGH” value worked out at 53.4. Also, the “cell viability (survival rate), LoVo” value in data set [9] (human, 10 µM) amounted to 47.0. Also, in data set [10] (human, 72 h, 10 µM), the “cell viability (survival rate), MKN-45” value came out at 81.4.
